Experimental data: ChEMBL document CHEMBL3885881, “DrugMatrix”

Species: Rattus norvegicus
Experiment: DrugMatrix - Regimen: Daily Repeat
Format: toxicity, organism-based, Sprague-Dawley
Parameters: regimen Daily Repeat, gender Male, age 6-8 weeks
Details: in vivo, sc, […], route mini-PUMP - SUBCUTANEOUS, dose level High, vehicle 100 % SALINE; for ABSOLUTE LYMPHOCYTE / ABSOLUTE MONOCYTE / BASOPHIL / EOSINOPHIL / ERYTHROCYTE COUNT / HEMATOCRIT / HEMOGLOBIN / LEUKOCYTE COUNT / MEAN CORPUSCULAR HEMOGLOBIN / MEAN CORPUSCULAR HEMOGLOBIN CONCENTRATION / MEAN CORPUSCULAR VOLUME / MONOCYTE / NEUTROPHIL / PLATELET COUNT / ABSOLUTE BASOPHIL / ABSOLUTE EOSINOPHIL / ABSOLUTE SEGMENTED NEUTROPHIL / NUCLEATED RED BLOOD CELLS: tissue Blood
[1] = 0.5 mg/kg, tissue Plasma, time 14 day
[2] = 72 h, dose 0.72 mg/Kg, time 3 day
[3] = 72 h, tissue Plasma, dose 0.72 mg/Kg, time 3 day
[4] = 120 h, dose 0.72 mg/Kg, time 5 day
[5] = 120 h, tissue Plasma, dose 0.72 mg/Kg, time 5 day
[6] = tissue Plasma, dose 0.72 mg/Kg, time 14 day

CC[C@H](C)[C@H](NC(=O)[C@H](Cc1ccc(O)cc1)NC(=O)[C@@H](NC(=O)[C@H](CCCNC(=N)N)NC(=O)[C@@H](N)CC(=O)O)C(C)C)C(=O)N[C@@H](Cc1cnc[nH]1)C(=O)N1CCC[C@H]1C(=O)N[C@@H](Cc1ccccc1)C(=O)O [ANGIOTENSIN II]
ABSOLUTE LYMPHOCYTE (0.5 mg/kg, time 14 day): 9890 cells/µL
ABSOLUTE MONOCYTE (0.5 mg/kg, time 14 day): 390 cells/µL
BASOPHIL (0.5 mg/kg, time 14 day): 0.3%
EOSINOPHIL (0.5 mg/kg, time 14 day): 0.46%
ERYTHROCYTE COUNT (0.5 mg/kg, time 14 day): 7.14 x10E6/uL
HEMATOCRIT (0.5 mg/kg, time 14 day): 45.2%
HEMOGLOBIN (0.5 mg/kg, time 14 day): 14.82 G/DL
LEUKOCYTE COUNT (0.5 mg/kg, time 14 day): 13.29 x10E3/uL
MEAN CORPUSCULAR HEMOGLOBIN (0.5 mg/kg, time 14 day): 20.82 pg
MEAN CORPUSCULAR HEMOGLOBIN CONCENTRATION (0.5 mg/kg, time 14 day): 32.78 G/DL
MEAN CORPUSCULAR VOLUME (0.5 mg/kg, time 14 day): 63.38 fL
MONOCYTE (0.5 mg/kg, time 14 day): 3.02%
NEUTROPHIL (0.5 mg/kg, time 14 day): 20.78%
PLATELET COUNT (0.5 mg/kg, time 14 day): 1204.2 x10E3/uL
ALBUMIN [1]: 3.98 G/DL
ALKALINE PHOSPHATASE [1]: 370.2 u/L
ASPARTATE AMINOTRANSFERASE [1]: 94.8 u/L
BLOOD UREA NITROGEN [1]: 19 mg/dL
CARBON DIOXIDE [1]: 41 mmol/L
CHOLESTEROL [1]: 66.8 mg/dL
CREATINE PHOSPHOKINASE [1]: 324.4 u/L
CREATININE [1]: 0.74 mg/dL
GLUCOSE [1]: 138.2 mg/dL
LACTATE DEHYDROGENASE [1]: 202.4 u/L
PHOSPHORUS [1]: 9.74 mg/dL
POTASSIUM [1]: 5.88 MEQ/L
SODIUM [1]: 149.8 MEQ/L
TOTAL BILIRUBIN [1]: 0.44 mg/dL
URIC ACID [1]: 0.7 mg/dL
ABSOLUTE BASOPHIL [2]: 0 CELLS/uL
ABSOLUTE EOSINOPHIL [2]: 0 CELLS/uL
ABSOLUTE LYMPHOCYTE [2]: 11891.33 CELLS/uL
ABSOLUTE MONOCYTE [2]: 399.33 CELLS/uL
ABSOLUTE SEGMENTED NEUTROPHIL [2]: 1676 CELLS/uL
BASOPHIL [2]: 0%
EOSINOPHIL [2]: 0%
ERYTHROCYTE COUNT [2]: 6.49 x10E6/uL
HEMATOCRIT [2]: 38.87%
HEMOGLOBIN [2]: 14.23 G/DL
LEUKOCYTE COUNT [2]: 13.97 x10E3/uL
MEAN CORPUSCULAR HEMOGLOBIN [2]: 21.93 pg
MEAN CORPUSCULAR HEMOGLOBIN CONCENTRATION [2]: 36.63 G/DL
MEAN CORPUSCULAR VOLUME [2]: 59.9 fL
MONOCYTE [2]: 2.67%
NEUTROPHIL [2]: 12%
NUCLEATED RED BLOOD CELLS [2]: 0 /100WBC
PLATELET COUNT [2]: 1285 x10E3/uL
ALBUMIN [3]: 4.4 G/DL
ALKALINE PHOSPHATASE [3]: 340 u/L
ASPARTATE AMINOTRANSFERASE [3]: 83.67 u/L
BLOOD UREA NITROGEN [3]: 25.67 mg/dL
CARBON DIOXIDE [3]: 28.67 mmol/L
CHOLESTEROL [3]: 90.33 mg/dL
CREATININE [3]: 0.22 mg/dL
GLUCOSE [3]: 151.33 mg/dL
LACTATE DEHYDROGENASE [3]: 469.67 u/L
PHOSPHORUS [3]: 10.63 mg/dL
POTASSIUM [3]: 5.96 MEQ/L
SODIUM [3]: 143.73 MEQ/L
TOTAL BILIRUBIN [3]: 0.2 mg/dL
URIC ACID [3]: 2 mg/dL
ABSOLUTE BASOPHIL [4]: 0 CELLS/uL
ABSOLUTE EOSINOPHIL [4]: 202.67 CELLS/uL
ABSOLUTE LYMPHOCYTE [4]: 15280.67 CELLS/uL
ABSOLUTE MONOCYTE [4]: 168.67 CELLS/uL
ABSOLUTE SEGMENTED NEUTROPHIL [4]: 1814.67 CELLS/uL
BASOPHIL [4]: 0%
EOSINOPHIL [4]: 1.33%
ERYTHROCYTE COUNT [4]: 6.42 x10E6/uL
HEMATOCRIT [4]: 38.03%
HEMOGLOBIN [4]: 14.03 G/DL
LEUKOCYTE COUNT [4]: 17.47 x10E3/uL
MEAN CORPUSCULAR HEMOGLOBIN [4]: 21.87 pg
MEAN CORPUSCULAR HEMOGLOBIN CONCENTRATION [4]: 36.9 G/DL
MEAN CORPUSCULAR VOLUME [4]: 59.23 fL
MONOCYTE [4]: 1%
NEUTROPHIL [4]: 10.33%
NUCLEATED RED BLOOD CELLS [4]: 0 /100WBC
PLATELET COUNT [4]: 1412 x10E3/uL
ALBUMIN [5]: 4.23 G/DL
ALKALINE PHOSPHATASE [5]: 297.67 u/L
ASPARTATE AMINOTRANSFERASE [5]: 85 u/L
BLOOD UREA NITROGEN [5]: 26 mg/dL
CARBON DIOXIDE [5]: 27.33 mmol/L
CHOLESTEROL [5]: 71 mg/dL
CREATININE [5]: 0.21 mg/dL
GLUCOSE [5]: 137 mg/dL
LACTATE DEHYDROGENASE [5]: 451.33 u/L
PHOSPHORUS [5]: 11.73 mg/dL
POTASSIUM [5]: 6.62 MEQ/L
SODIUM [5]: 144.83 MEQ/L
TOTAL BILIRUBIN [5]: 0.2 mg/dL
URIC ACID [5]: 2.03 mg/dL
ABSOLUTE BASOPHIL (dose 0.72 mg/Kg, time 14 day): 0 CELLS/uL
ABSOLUTE EOSINOPHIL (dose 0.72 mg/Kg, time 14 day): 135.4 CELLS/uL
ABSOLUTE LYMPHOCYTE (dose 0.72 mg/Kg, time 14 day): 12908 CELLS/uL
ABSOLUTE MONOCYTE (dose 0.72 mg/Kg, time 14 day): 411.8 CELLS/uL
ABSOLUTE SEGMENTED NEUTROPHIL (dose 0.72 mg/Kg, time 14 day): 3124.8 CELLS/uL
BASOPHIL (dose 0.72 mg/Kg, time 14 day): 0%
EOSINOPHIL (dose 0.72 mg/Kg, time 14 day): 0.8%
ERYTHROCYTE COUNT (dose 0.72 mg/Kg, time 14 day): 6.73 x10E6/uL
HEMATOCRIT (dose 0.72 mg/Kg, time 14 day): 38.96%
HEMOGLOBIN (dose 0.72 mg/Kg, time 14 day): 14.36 G/DL
LEUKOCYTE COUNT (dose 0.72 mg/Kg, time 14 day): 16.58 x10E3/uL
MEAN CORPUSCULAR HEMOGLOBIN (dose 0.72 mg/Kg, time 14 day): 21.34 pg
MEAN CORPUSCULAR HEMOGLOBIN CONCENTRATION (dose 0.72 mg/Kg, time 14 day): 36.86 G/DL
MEAN CORPUSCULAR VOLUME (dose 0.72 mg/Kg, time 14 day): 57.88 fL
MONOCYTE (dose 0.72 mg/Kg, time 14 day): 2.6%
NEUTROPHIL (dose 0.72 mg/Kg, time 14 day): 17.8%
NUCLEATED RED BLOOD CELLS (dose 0.72 mg/Kg, time 14 day): 0 /100WBC
PLATELET COUNT (dose 0.72 mg/Kg, time 14 day): 976.2 x10E3/uL
ALBUMIN [6]: 4.22 G/DL
ALKALINE PHOSPHATASE [6]: 388 u/L
ASPARTATE AMINOTRANSFERASE [6]: 100.6 u/L
BLOOD UREA NITROGEN [6]: 31 mg/dL
CARBON DIOXIDE [6]: 34.2 mmol/L
CHOLESTEROL [6]: 70.6 mg/dL
CREATININE [6]: 0.27 mg/dL
GLUCOSE [6]: 174 mg/dL
LACTATE DEHYDROGENASE [6]: 122.4 u/L
PHOSPHORUS [6]: 11.92 mg/dL
POTASSIUM [6]: 5.67 MEQ/L
SODIUM [6]: 147.54 MEQ/L
TOTAL BILIRUBIN [6]: 0.2 mg/dL
URIC ACID [6]: 2.4 mg/dL
